# From ChEMBL document CHEMBL1201861, “Genomics of Drug Sensitity in Cancer screening data, Wellcome Trust Sanger Institute”
# Assays:
# Assay in all cases: cells
# Assay type in all cases: functional, cell-based, Homo sapiens
# GB-1 = details: Homo sapiens, GB-1;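 further: growth of GB-1 cells judged by a viability assay, IC50 marks the concentration inhibiting growth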
# Description: SANGER: Inhibition of human GB-1 cell growth in a cell viability assay.
# TGBC24TKB = details: Homo sapiens, TGBC24TKB;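 further: growth inhibition of human TGBC24TKB cells, read out with a cell viability assay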
# Description: SANGER: Inhibition of human TGBC24TKB cell growth in a cell viability assay.
# NB10 = details: Homo sapiens, NB10;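 further: growth inhibition of NB10 cells, read out by a cell viability assay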
# Description: SANGER: Inhibition of human NB10 cell growth in a cell viability assay.
# NCI-H1581 = details: Homo sapiens, NCI-H1581;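 further: cell growth inhibition read out by a viability assay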
# Description: SANGER: Inhibition of human NCI-H1581 cell growth in a cell viability assay.
# LOX IMVI = details: Homo sapiens, LOX IMVI
# Description: SANGER: Inhibition of human LOXIMVI cell growth in a cell viability assay.
# OVCAR-4 = details: Homo sapiens, OVCAR-4;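 further: growth inhibition of human OVCAR-4 cells, measured with a cell viability assay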
# Description: SANGER: Inhibition of human OVCAR-4 cell growth in a cell viability assay.
# SK-MEL-2 = details: Homo sapiens, SK-MEL-2;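 further: growth inhibition of human SK-MEL-2 cells measured with a cell viability assay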
# Description: SANGER: Inhibition of human SK-MEL-2 cell growth in a cell viability assay.
# LS-123 = details: Homo sapiens, LS-123
# Description: SANGER: Inhibition of human LS-123 cell growth in a cell viability assay.
# SCC-15 = details: Homo sapiens, SCC-15;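 further: growth inhibition of SCC-15 cells, read out with a cell viability assay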
# Description: SANGER: Inhibition of human SCC-15 cell growth in a cell viability assay.
# D-247MG = details: Homo sapiens, D-247MG
# Description: SANGER: Inhibition of human D-247MG cell growth in a cell viability assay.
# UACC-257 = details: Homo sapiens, UACC-257
# Description: SANGER: Inhibition of human UACC-257 cell growth in a cell viability assay.
# SW982 = details: Homo sapiens, SW982;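 further: growth inhibition of SW982 cells, read out with a cell viability assay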
# Description: SANGER: Inhibition of human SW982 cell growth in a cell viability assay.
# SF-268 = details: Homo sapiens, SF-268;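 further: growth inhibition of SF-268 cells determined with a cell viability assay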
# Description: SANGER: Inhibition of human SF268 cell growth in a cell viability assay.
# NB17 = details: Homo sapiens, NB17;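 further: growth inhibition of NB17 cells, read out with a cell viability assay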
# Description: SANGER: Inhibition of human NB17 cell growth in a cell viability assay.
# SCH = details: Homo sapiens, SCH;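 further: growth inhibition of human SCH cells, read out in a cell viability assay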
# Description: SANGER: Inhibition of human SCH cell growth in a cell viability assay.
# RH-1 = details: Homo sapiens, RH-1;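 further: growth inhibition of human RH-1 cells, read out with a cell viability assay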
# Description: SANGER: Inhibition of human RH-1 cell growth in a cell viability assay.
# CGTH-W-1 = details: Homo sapiens, CGTH-W-1;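 further: growth inhibition of human CGTH-W-1 cells measured by cell viability assay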
# Description: SANGER: Inhibition of human CGTH-W-1 cell growth in a cell viability assay.
# NCI-H1299 = details: Homo sapiens, NCI-H1299;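 further: growth inhibition of human NCI-H1299 cells, read out by a cell viability assay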
# Description: SANGER: Inhibition of human NCI-H1299 cell growth in a cell viability assay.
# TE-6 = details: Homo sapiens, TE-6;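 further: growth inhibition of TE-6 cells, read out with a cell viability assay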
# Description: SANGER: Inhibition of human TE-6 cell growth in a cell viability assay.
# EW-1 = details: Homo sapiens, EW-1
# Description: SANGER: Inhibition of human EW-1 cell growth in a cell viability assay.
# no-11 = details: Homo sapiens;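 further: growth inhibition of human NO-11 cells, read out with a cell viability assay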
# Description: SANGER: Inhibition of human no-11 cell growth in a cell viability assay.
# KINGS-1 = details: Homo sapiens, KINGS-1;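 further: cell viability assay measuring suppression of KINGS-1 cell growth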
# Description: SANGER: Inhibition of human KINGS-1 cell growth in a cell viability assay.
# RXF 393 = details: Homo sapiens, RXF 393;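 further: growth inhibition of human RXF 393 cells, read out with a cell viability assay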
# Description: SANGER: Inhibition of human RXF393 cell growth in a cell viability assay.
# HCC 2998 = details: Homo sapiens, HCC 2998;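 further: growth inhibition of human HCC2998 cells, measured with a cell viability read-out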
# Description: SANGER: Inhibition of human HCC2998 cell growth in a cell viability assay.
# IST-MEL1 = details: Homo sapiens, IST-MEL1;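 further: growth inhibition of the cell line, read out with a cell viability assay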
# Description: SANGER: Inhibition of human IST-MEL1 cell growth in a cell viability assay.
# DJM-1 = details: Homo sapiens, DJM-1;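 further: growth inhibition of human DJM-1 cells, read out by a cell viability assay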
# Description: SANGER: Inhibition of human DJM-1 cell growth in a cell viability assay.
# PSN1 = details: Homo sapiens, PSN1;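 further: suppression of growth of human PSN1 cells, read out by a cell viability assay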
# Description: SANGER: Inhibition of human PSN1 cell growth in a cell viability assay.
# SW 954 = details: Homo sapiens, SW 954;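 further: growth inhibition of SW954 human cancer cells, read out as cell viability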
# Description: SANGER: Inhibition of human SW954 cell growth in a cell viability assay.
# GAK = details: Homo sapiens, GAK;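 further: cell growth inhibition read out by a cell viability assay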
# Description: SANGER: Inhibition of human GAK cell growth in a cell viability assay.
# OCUB-M = details: Homo sapiens, OCUB-M;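 further: growth inhibition of the cancer cell line, read out through a cell viability assay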
# Description: SANGER: Inhibition of human OCUB-M cell growth in a cell viability assay.
# KALS-1 = details: Homo sapiens, KALS-1;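 further: growth inhibition of KALS-1 cells, determined with a cell viability assay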
# Description: SANGER: Inhibition of human KALS-1 cell growth in a cell viability assay.
# NCI-H526 = details: Homo sapiens, NCI-H526;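 further: growth inhibition of the human NCI-H526 cell line, measured by a cell viability assay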
# Description: SANGER: Inhibition of human NCI-H526 cell growth in a cell viability assay.
# NCI-H1770 = details: Homo sapiens, NCI-H1770;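 further: growth inhibition of NCI-H1770 cells determined with a viability readout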
# Description: SANGER: Inhibition of human NCI-H1770 cell growth in a cell viability assay.
# BV-173 = details: Homo sapiens, BV-173
# Description: SANGER: Inhibition of human BV-173 cell growth in a cell viability assay.
# L-363 = details: Homo sapiens, L-363
# Description: SANGER: Inhibition of human L-363 cell growth in a cell viability assay.
# DMS-79 = details: Homo sapiens, DMS-79;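 further: growth inhibition measured with a cell viability assay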
# Description: SANGER: Inhibition of human DMS-79 cell growth in a cell viability assay.
# U-266 = details: Homo sapiens, U-266
# Description: SANGER: Inhibition of human U-266 cell growth in a cell viability assay.
# NCI-H1304 = details: Homo sapiens, NCI-H1304;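 further: growth inhibition of the cancer cell line, measured in a cell viability assay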
# Description: SANGER: Inhibition of human NCI-H1304 cell growth in a cell viability assay.
# RPMI-8866 = details: Homo sapiens, RPMI-8866
# Description: SANGER: Inhibition of human RPMI-8866 cell growth in a cell viability assay.
# MS-1 = details: Homo sapiens, MS-1;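 further: growth inhibition of MS-1 cells, read out by cell viability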
# Description: SANGER: Inhibition of human MS-1 cell growth in a cell viability assay.
# OCI-AML2 = details: Homo sapiens, OCI-AML2;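 further: growth inhibition of OCI-AML2 cells, read out with a cell viability assay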
# Description: SANGER: Inhibition of human OCI-AML2 cell growth in a cell viability assay.
# RPMI-8226 = details: Homo sapiens, RPMI-8226
# Description: SANGER: Inhibition of human RPMI-8226 cell growth in a cell viability assay.
# Mo = details: Homo sapiens, Mo
# Description: SANGER: Inhibition of human Mo-T cell growth in a cell viability assay.
# DU-4475 = details: Homo sapiens, DU-4475
# Description: SANGER: Inhibition of human DU-4475 cell growth in a cell viability assay.
# EW-18 = details: Homo sapiens, EW-18;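 further: growth inhibition of EW-18 cells, read out by a cell viability assay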
# Description: SANGER: Inhibition of human EW-18 cell growth in a cell viability assay.
# Ramos-2G6-4C10 = details: Homo sapiens, Ramos-2G6-4C10;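 further: growth inhibition of the cell line, measured by a cell viability read-out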
# Description: SANGER: Inhibition of human Ramos-2G6-4C10 cell growth in a cell viability assay.
# HDLM-2 = details: Homo sapiens, HDLM-2;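 further: cell viability assay measuring suppression of HDLM-2 proliferation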
# Description: SANGER: Inhibition of human HDLM-2 cell growth in a cell viability assay.
# MOLT-4 = details: Homo sapiens, MOLT-4;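 further: growth inhibition of MOLT-4 cells, determined with a cell viability readout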
# Description: SANGER: Inhibition of human MOLT-4 cell growth in a cell viability assay.
# K562 = details: Homo sapiens, K562
# Description: SANGER: Inhibition of human K-562 cell growth in a cell viability assay.
structure (smiles),measurement,setting,value
CC(C)c1ccccc1Cc1cc(C(=O)Nc2ccc(S(=O)(=O)c3ccccc3C(C)(C)C)cc2)c(O)c(O)c1O,IC50,GB-1,98.7 nM
same,IC50,TGBC24TKB,227 nM
same,IC50,NB10,215 nM
same,IC50,NCI-H1581,67.6 nM
same,IC50,LOX IMVI,271 nM
same,IC50,OVCAR-4,610 nM
same,IC50,SK-MEL-2,230 nM
same,IC50,LS-123,2200 nM
same,IC50,SCC-15,223 nM
same,IC50,D-247MG,936 nM
same,IC50,UACC-257,552 nM
same,IC50,SW982,111 nM
same,IC50,SF-268,272 nM
same,IC50,NB17,1060 nM
same,IC50,SCH,367 nM
same,IC50,RH-1,158 nM
same,IC50,CGTH-W-1,186 nM
same,IC50,NCI-H1299,280 nM
same,IC50,TE-6,24.5 µM
same,IC50,EW-1,227 nM
same,IC50,no-11,2840 nM
same,IC50,KINGS-1,2750 nM
same,IC50,RXF 393,1210 nM
same,IC50,HCC 2998,5890 nM
same,IC50,IST-MEL1,228 nM
same,IC50,DJM-1,520 nM
same,IC50,PSN1,167 nM
same,IC50,SW 954,467 nM
same,IC50,GAK,2030 nM
same,IC50,OCUB-M,243 nM
same,IC50,KALS-1,253 nM
N#Cc1c(O)c2c(-c3ccc(-c4ccccc4O)cc3)csc2[nH]c1=O,IC50,GB-1,> 1020 nM
same,IC50,TGBC24TKB,> 1020 nM
same,IC50,NB10,> 1020 nM
same,IC50,NCI-H526,468 nM
same,IC50,NCI-H1581,> 1020 nM
same,IC50,LOX IMVI,88.3 nM
same,IC50,OVCAR-4,> 1020 nM
same,IC50,SK-MEL-2,> 1020 nM
same,IC50,NCI-H1770,109 nM
same,IC50,BV-173,> 1020 nM
same,IC50,L-363,211 nM
same,IC50,DMS-79,> 1020 nM
same,IC50,U-266,405 nM
same,IC50,LS-123,> 1020 nM
same,IC50,NCI-H1304,634 nM
same,IC50,RPMI-8866,> 1020 nM
same,IC50,SCC-15,> 1020 nM
same,IC50,MS-1,827 nM
same,IC50,D-247MG,> 1020 nM
same,IC50,OCI-AML2,57.2 nM
same,IC50,UACC-257,> 1020 nM
same,IC50,SW982,> 1020 nM
same,IC50,RPMI-8226,246 nM
same,IC50,SF-268,> 1020 nM
same,IC50,Mo,> 1020 nM
same,IC50,DU-4475,> 1020 nM
same,IC50,EW-18,451 nM
same,IC50,SCH,> 1020 nM
same,IC50,Ramos-2G6-4C10,172 nM
same,IC50,RH-1,> 1020 nM
same,IC50,CGTH-W-1,> 1020 nM
same,IC50,NCI-H1299,> 1020 nM
same,IC50,TE-6,> 1.02 µM
same,IC50,EW-1,> 1020 nM
same,IC50,no-11,> 1020 nM
same,IC50,HDLM-2,136 nM
same,IC50,MOLT-4,114 nM
same,IC50,KINGS-1,> 1020 nM
same,IC50,RXF 393,> 1020 nM
same,IC50,HCC 2998,> 1020 nM
same,IC50,IST-MEL1,> 1020 nM
same,IC50,DJM-1,> 1020 nM
same,IC50,PSN1,> 1020 nM
same,IC50,SW 954,> 1020 nM
same,IC50,K562,> 1020 nM
same,IC50,GAK,> 1020 nM
same,IC50,OCUB-M,> 1020 nM
same,IC50,KALS-1,> 1020 nM
Cn1cnc2c(F)c(Nc3ccc(Br)cc3Cl)c(C(=O)NOCCO)cc21 [SELUMETINIB],IC50,GB-1,> 4000 nM
same,IC50,TGBC24TKB,> 4000 nM
same,IC50,NB10,> 4000 nM
same,IC50,NCI-H526,> 4000 nM
same,IC50,NCI-H1581,> 4000 nM
same,IC50,LOX IMVI,859 nM
same,IC50,OVCAR-4,> 4000 nM
same,IC50,SK-MEL-2,405 nM
same,IC50,NCI-H1770,> 4000 nM
same,IC50,BV-173,748 nM
same,IC50,L-363,> 4000 nM
same,IC50,U-266,488 nM
same,IC50,LS-123,3620 nM
same,IC50,NCI-H1304,> 4000 nM
same,IC50,RPMI-8866,> 4000 nM
same,IC50,SCC-15,> 4000 nM
same,IC50,MS-1,> 4000 nM
same,IC50,D-247MG,> 4000 nM
same,IC50,OCI-AML2,> 4000 nM
same,IC50,UACC-257,322 nM
same,IC50,SW982,> 4000 nM
same,IC50,RPMI-8226,740 nM
same,IC50,SF-268,> 4000 nM
same,IC50,Mo,> 4000 nM
same,IC50,DU-4475,33.7 nM
same,IC50,EW-18,> 4000 nM
same,IC50,NB17,> 4000 nM
same,IC50,SCH,> 4000 nM
same,IC50,Ramos-2G6-4C10,> 4000 nM
same,IC50,RH-1,> 4000 nM
same,IC50,CGTH-W-1,> 4000 nM
same,IC50,NCI-H1299,> 4000 nM
same,IC50,TE-6,> 4 µM
same,IC50,EW-1,> 4000 nM
same,IC50,no-11,> 4000 nM
same,IC50,HDLM-2,> 4000 nM
same,IC50,MOLT-4,> 4000 nM
same,IC50,KINGS-1,> 4000 nM
same,IC50,RXF 393,> 4000 nM
same,IC50,HCC 2998,269 nM
same,IC50,IST-MEL1,> 4000 nM
same,IC50,DJM-1,> 4000 nM
same,IC50,PSN1,366 nM
same,IC50,SW 954,896 nM
same,IC50,K562,> 4000 nM
same,IC50,GAK,1900 nM
same,IC50,OCUB-M,> 4000 nM
